This is an account of results in patent publication US8865701B2, “Spiropyrrolidine beta-secretase inhibitors for the treatment of alzheimer'S disease” (Merck Sharp & Dohme Corp., priority 2009, dated 2014).

A word on the IC50: it is the midpoint of a concentration-inhibition curve. Low readings indicate greater potency in that assay, high ones weaker potency in that assay.

For the assay, the target named is BACE 1 (Homo sapiens (Human), UniProt P56817). Put plainly: ECL assay of beta-secretase (BACE) enzyme inhibition. In kind it is biochemical. To be noted: homogeneous end point ECL assay, biotinylated BACE substrate, soluble human enzyme, pH 6.5, rt. The method, then: Enzyme inhibition is determined as follows.
Chain of BACE 1 (P56817 46-457): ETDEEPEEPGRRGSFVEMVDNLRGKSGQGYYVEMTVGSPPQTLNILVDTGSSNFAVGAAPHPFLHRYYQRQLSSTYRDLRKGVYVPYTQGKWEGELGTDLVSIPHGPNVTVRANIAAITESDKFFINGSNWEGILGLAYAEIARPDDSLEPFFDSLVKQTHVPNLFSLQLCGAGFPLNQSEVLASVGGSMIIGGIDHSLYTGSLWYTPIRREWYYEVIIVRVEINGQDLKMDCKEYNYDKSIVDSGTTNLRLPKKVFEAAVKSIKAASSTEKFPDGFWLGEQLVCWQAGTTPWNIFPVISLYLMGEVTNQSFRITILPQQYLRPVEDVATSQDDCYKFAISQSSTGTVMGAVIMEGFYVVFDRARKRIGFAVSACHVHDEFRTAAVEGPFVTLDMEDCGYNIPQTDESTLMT
ECL Assay: A homogeneous end point electrochemiluminescence (ECL) assay is performed using a biotinylated BACE substrate. The Km of the substrate is approximated at 50 μM. A typical reaction contains approximately 0.6 nM enzyme, 0.25 μM of the substrate, and buffer (50 mM Pipes, pH 6.5, 0.1 mg/ml BSA, 0.2% CHAPS, 15 mM EDTA and 1 mM deferoxamine) in a total reaction volume of 100 μl. The reaction proceeds for 1-2 hrs and is then stopped by the addition of 150 μL of a quench cocktail solution (25 μl M Tris-HCl, pH 8.0, 50 μl INC buffer (2% BSA, 0.2% Tween-20 and 0.05% sodium azide diluted in Phosphate buffered saline (PBS) plus 75 μL PBS), containing Streptavidin coated magnetic beads and ruthenylated antibody which specifically recognizes the C-terminal residue of the product. The samples are subjected to M-384 (Igen Inc., Gaithersburg, Md.) analysis. Under these conditions, less than 10% of substrate is processed by BACE 1. The enzyme used in these studies is soluble (transmembrane domain and cytoplasmic extension excluded) human protein produced in a baculovirus expression system. To measure the inhibitory potency for compounds, 10 concentrations of inhibitors are prepared starting from 200 μM with three fold series dilution. Solutions of the inhibitor in DMSO are included in the reaction mixture (final DMSO concentration is 10%). All experiments are conducted at rt using the standard reaction conditions described above. To determine the IC50 of the compound, a four parameter equation is used for curve fitting. The errors in reproducing the dissociation constants are typically less than two-fold.
`O=C([C@@H]1CNC[C@]12CCc1cc(Br)ccc12)N1CCC(c2ccccc2)CC1` [Example 30, [(1R,4′S)-5-bromo-2,3-dihydrospiro[indene-1,3′-pyrrolidin]-4′-yl](4-phenylpiperidin-1-yl)methanone]: the IC50 was 14000 nM. That is a double-digit micromolar value.

In the case of `O=C([C@@H]1CNC[C@]12CCc1ccccc12)N1CC[C@@H](c2ccccc2)C[C@H]1c1ccccc1` [Example 21, (1R,4′S)-2,3-dihydrospiro[indene-1,3′-pyrrolidin]-4′-yl[(2S,4R)-2,4-diphenylpiperidin-1-yl]methanone], the IC50 amounted to 71 nM. With `O=C([C@@H]1CNC[C@]12CCCc1cc(Cl)ccc12)N1CCC(c2ccccc2)CC1` [Example 19, [(1R,4′S)-6-chloro-3,4-dihydro-2H-spiro[naphthalene-1,3′-pyrrolidin]-4′-yl](4-phenylpiperidin-1-yl)methanone] the figure was 920 nM. The figure for `O=C([C@@H]1CNC[C@]12CCCc1nc(Cl)ccc12)N1CCC2(C=Cc3ccccc32)CC1c1ccccc1` (stereo partly drawn) [Example 77, [(3R,4S)-2′-chloro-7′,8′-dihydro-6′H-spiro[pyrrolidine-3,5′-quinolin]-4-yl](2′-phenyl-1′H-spiro[indene-1,4′-piperidin]-1′-yl)methanone] is 200 nM; for `COc1cccc2c1OCC[C@]21CNC[C@H]1C(=O)N1CC[C@@H](c2ccccc2)C[C@H]1C1CCCC(F)(F)C1` (stereo partly drawn) [Example 3, [(4R,4′S)-8-methoxy-2,3-dihydrospiro[chromene-4,3′-pyrrolidin]-4′-yl][(2S,4R)-2-(3,3-difluorocyclohexyl)-4-phenylpiperidin-1-yl]methanone] it is 2190 nM; for `COC(C)(C)C1CCCCN1C(=O)[C@@H]1CNC[C@@]12CCCc1ccccc12` (stereo partly drawn) [Example 10, (1S,4′S)-3,4-dihydro-2H-spiro[naphthalene-1,3′-pyrrolidin]-4′-yl[2-(2-methoxypropan-2-yl)piperidin-1-yl]methanone] it is 20000 nM. With `CCc1ccc2c(c1)CCC[C@]21CNC[C@H]1C(=O)N1CCC(c2ccccc2)CC1` [Example 44, [(1R,4′S)-6-ethyl-3,4-dihydro-2H-spiro[naphthalene-1,3′-pyrrolidin]-4′-yl](4-phenylpiperidin-1-yl)methanone] the figure was 19000 nM; with `O=C([C@@H]1CNC[C@]12CCSc1ccccc12)N1CCC(c2ccccc2)CC1` [Example 38, (3R,4S)-2′,3′-dihydrospiro[pyrrolidine-3,4′-thiochromen]-4-yl(4-phenylpiperidin-1-yl)methanone], 12000 nM.

`CC(C)c1cccc2c1CCC[C@]21CNC[C@H]1C(=O)N1CCC(c2ccccc2)CC1` [Example 31, (4-phenylpiperidin-1-yl)[(1R,4′S)-5-(propan-2-yl)-3,4-dihydro-2H-spiro[naphthalene-1,3′-pyrrolidin]-4′-yl]methanone] registered an IC50 of 24 nM.

For `CC(C)[C@@H]1C[C@H](c2ccccc2)CCN1C(=O)[C@@H]1CNC[C@]12CCCc1ccccc12` [Example 7, (1R,4′S)-3,4-dihydro-2H-spiro[naphthalene-1,3′-pyrrolidin]-4′-yl[(2S,4R)-4-phenyl-2-(propan-2-yl)piperidin-1-yl]methanone], the IC50 was determined as 22000 nM.

With `Cc1cccc(C2CC(c3ccccc3)CCN2C(=O)[C@@H]2CNC[C@]23CCCc2nc(Cl)ccc23)c1` (stereo partly drawn) [Example 100, [(3R,4S)-2′-chloro-7′,8′-dihydro-6′H-spiro[pyrrolidine-3,5′-quinolin]-4-yl][2-(3-methylphenyl)-4-phenylpiperidin-1-yl]methanone], the IC50 was found to be 450 nM.
